The test addresses T1, de novo-synthesized PPARα (Mus musculus, UniProt P23204).
T1 construct: infected with lentiviral particles of full-length PPARα and then immunoprecipitation performed; expressed in transfected cells; host or cells: Ppara-null mouse hippocampal neurons, lentiviral transduction
T1 sequence (P23204 1-468): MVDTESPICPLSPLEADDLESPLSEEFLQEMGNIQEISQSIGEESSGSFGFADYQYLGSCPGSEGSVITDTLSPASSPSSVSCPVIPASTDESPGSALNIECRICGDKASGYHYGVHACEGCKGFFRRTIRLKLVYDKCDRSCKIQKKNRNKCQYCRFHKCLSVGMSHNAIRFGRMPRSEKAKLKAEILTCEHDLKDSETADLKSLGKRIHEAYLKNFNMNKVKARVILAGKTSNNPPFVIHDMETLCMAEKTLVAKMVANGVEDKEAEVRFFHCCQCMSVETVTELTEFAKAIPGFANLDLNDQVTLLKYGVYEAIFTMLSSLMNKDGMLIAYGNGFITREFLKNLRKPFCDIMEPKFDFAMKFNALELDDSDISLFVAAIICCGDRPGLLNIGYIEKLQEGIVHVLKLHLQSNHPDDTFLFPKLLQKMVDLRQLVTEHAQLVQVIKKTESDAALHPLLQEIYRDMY
Put plainly: Immunoprecipitation and GC-MS of Ppara-null hippocampal neurons infected with lenti full-length PPARα. The class given is binding. To be noted: lenti-FLPara-transduced, not empty lenti-vector. The method, then:
Identification of novel nuclear ligands of PPARα in the hippocampus PPARs are nuclear receptors that require the binding of ligands for activation of gene expression. […] In order to identify these ligands, a gas chromatography mass spectrometric (GCMS) technology was adopted. Briefly, nuclear extracts were prepared form mouse hippocampus, incubated with a GST-tagged PPARα ligand binding domain (LBD), purified with affinity chromatography, reconstituted with chloroform or acetonitrile, and GCMS analyses preformed. (FIG. 1A, FIGS. 7A-C.). […] Therefore, next cultured Ppara-null hippocampal neurons were infected with lentiviral particles of full-length PPARα and then immunoprecipitation performed followed by GCMS analyses (FIG. 1J, FIG. 7G-H). […] The efficiency of gene transduction was measured by immunoblot analyses of cell extract with PPARα antibody (FIG. 7I. In addition, these analyses successfully identified a group of biological ligands of PPARα, which are endogenously produced in the hippocampus. Some of these detected compounds are sulfur-containing unknown compounds such as thiazoles (MW 220-240), thiosemicarbazones (MW 190-200) and thiazolidine esters (MW 250-270) (Table 2). However, these compounds were excluded from this study because of their unknown biosynthetic pathway, relatively poor match-factor (<65), and commercial unavailability. […]

On to `CCCCCCCCCCCCCCCC(N)=O` [HEX, hexadecanamide], for which the “binding to de novo-synthesized PPARα (GC-MS)” value is “found to be bound”.
On to `CCCCCCCCC=CCCCCCCCC(N)=O` [OCT, 9-octadecenamide], for which the “binding to de novo-synthesized PPARα (GC-MS)” value is “found to be bound”.

Source of the values: patent US10617664B2, “Brain derived PPARα ligands” (Rush University Medical Center, priority 2015, dated 2020).
